Assay results from patent US20230190743A1, “TREATMENT WITH ILEAL BILE ACID TRANSPORTER (IBAT) INHIBITORS FOR INCREASED EVENT-FREE SURVIVAL (EFS)” (Mirum Pharmaceuticals, Inc., priority 2021, published 2023).
Entries after “also recorded” stand apart in the source; their conditions may differ.

Assays:
[1] = system: children with FIC1 or BSEP deficiencies (PFIC); assay: INDIGO open-label Phase 2 long-term efficacy and safety study; type: in vivo, human; settings: for tolerability: up to 5 years of treatment
Method: INDIGO investigated the effect of maralixibat on sBA levels and cholestatic pruritus, alongside other biochemical markers of cholestasis and liver disease in these patients.
The study was conducted at 12 hospitals in France, Poland, the United Kingdom, and the United States. Screening evaluations were performed in the 6 weeks prior to the start of the study. In patients without documented ATP8B1 or ABCB11 mutations, genetic testing was performed.
The primary efficacy endpoint was the change in mean fasting sBA levels from Baseline to Week 13 in the overall intent-to-treat (ITT) study population. The key secondary efficacy endpoint was the mean change in observer-rated pruritus (Itch Reported Outcome Observer [ItchRO(Obs)]) score from Baseline to Week 13 in the overall ITT study population. Other secondary efficacy endpoints included the mean changes from Baseline to Week 13 in total cholesterol, low- and high-density lipoprotein cholesterol (LDL-C and HDL-C, respectively), and serum triglyceride levels in the overall ITT study population. Additional efficacy and safety analyses included the change from Baseline to Week 72 and Week 240 in sBA levels, patient height and weight, bile acid synthesis (as determined by the ratio between sBA levels and 7α-hydroxy-4-cholesten-3-one [7α-C4] levels), quality of life as measured by the Pediatric Quality of Life Inventory™ (PedsQL™), mean changes in ALT, aspartate aminotransferase (AST), and bilirubin (total and direct), lipid profiles, and FSV levels. The ItchRO assessment was not performed at Week 72, so data from Week 48 were used instead.
Efficacy and safety analyses were performed for the overall ITT study population as well as the two PFIC subtypes (FIC1 deficiency and BSEP deficiency) separately. Patients with BSEP deficiency were analyzed overall and according to their mutation type (t-BSEP and nt-BSEP). Long-term changes in pruritus scores, patient height, blood lipids, liver parameters, and transplant-free survival were assessed according to a responder analysis.
Quantitative analysis of the 15 major sBAs and serum 7α-C4 was performed at a single site (Cincinnati) by stable isotope dilution electrospray ionization liquid chromatography-mass spectrometry (LCMS/MS) using a fully validated proprietary assay that complies with College of American Pathologists/Clinical Laboratory Improvement Amendments certification. The study protocol defined a composite response to maralixibat as achieving a ≥1.0-point reduction in ItchRO(Obs) score and a ≥70% reduction or normalization of sBA levels from Baseline. […] Pruritus was measured using the ItchRO tool, which was specifically developed and validated to evaluate pruritus in children with cholestatic liver diseases, based on a five-point scale where 0=‘none’ and 4=‘very severe’. […] The ItchRO measure was completed twice daily via an eDiary. Parents/caregivers completed the ItchRO(Obs) assessment for all patients. Additionally, children ≥9 years of age completed the ItchRO(Pt) assessment. Levels of ALT, AST, bilirubin (total and direct), lipids, and FSV were assessed using standard clinical laboratory techniques. Quality of life was assessed using the PedsQL™ questionnaire. […] The occurrence of treatment-emergent adverse events (TEAEs) and serious adverse events (SAEs) was assessed throughout the study.

[2] = system: patients with PFIC due to BSEP deficiency (nontruncated BSEP mutation); assay: INDIGO long-term study, sBA control after >4.5 years of MRX; type: in vivo, human
From the text: Maralixibat (MRX) is an ileal bile acid transport (IBAT) inhibitor approved for the treatment of pruritus in patients with Alagille syndrome aged 1 year and older and under evaluation in patients with PFIC.

[3] = patients with sBA control, to Week 237, p<0.05

CCCCC1(CCCC)CS(=O)(=O)c2ccc(N(C)C)cc2[C@@H](c2ccc(OCc3ccc(C[N+]45CCN(CC4)CC5)cc3)cc2)[C@H]1O [maralixibat]
sBA responders who achieved response during once-daily dosing ([1]; 266 μg/kg once daily): six and Six | sBA responders who achieved response after switching to twice-daily dosing ([1]; 266 μg/kg twice daily, after Week 97): one | TEAE cough, patients ([1]; 18 patients): 55% | TEAE diarrhea, patients ([1]; 19 patients): 58% | TEAE pyrexia, patients ([1]; 20 patients): 61% | TEAEs mild or moderate in severity ([1]; 33 patients): 58% | patients who experienced ≥1 TEAE ([1]; 33 patients, result in words): All patients | sBA non-responders with transplant-free survival after >5 years ([1]; P<0.001 vs sBA responders, result in words): none | mean reduction from Baseline in ItchRO(Obs) score ([1]; Week 13, ITT population, 95% CI −1.04, −0.53, P<0.001): −0.8 | mean reduction from Baseline in ItchRO(Pt) score ([1]; Week 13, ITT population, 95% CI −1.55, −0.47, P=0.002): −1.0 | patients with serious TEAEs ([1]; during the study): 15 patients | patients with FIC1 deficiency who met the sBA responder criteria ([1]; eight patients with FIC1 deficiency, result in words): No patient | SAEs abdominal pain, diarrhea, and gastroenteritis ([1]; in vivo): two | patients who discontinued due to adverse events or liver transplantation following disease progression ([1]; in vivo): 12 patients | sBA responders listed for liver transplantation who were removed from the transplant waiting list ([1]; listed for refractory pruritus at the beginning of the study): Two | patients with nt-BSEP who achieved sBA response ([1]; n=19 nt-BSEP): 37% | patients with nt-BSEP with rapid and sustained reductions in sBA levels ([1]; of 19 patients with nt-BSEP): 6 patients | patients with nt-BSEP who achieved sBA response (reduction >75% from baseline or <102.0 μmol/L) ([1]; of 19 with nt-BSEP, during the study): seven | patients who discontinued maralixibat due to an adverse event ([1]; one with FIC1 deficiency, seven with BSEP deficiency): Eight | change in sBA levels from Baseline to Week 13 ([1]; overall ITT population (33 patients), 95% CI −74.830, 41.070, P=0.884): -16.9 µmol/L | mean levels of sBA, ItchRO(Obs) scores, and PedsQL scores versus Baseline ([1]; patients with FIC1 deficiency, long-term, result in words): did not change significantly | change in mean level of serum 7α-C4 ([1]; patients with nt-BSEP, Week 240, 95% CI 4.07, 48.50, P=0.027): +26.29 ng/mL | deaths during the study ([1]; result in words): No deaths | effect on levels of FSV or liver transaminases ([1]; result in words): did not have any significant detrimental effects | sBA non-responders with clinically meaningful (>1.0 points) reduction in ItchRO(Obs) ([1]; sBA non-responders): Three | change in weight z-score (decrease) ([1]; sBA non-responders, Week 72, 95% CI −0.606, −0.012): −0.30 | time to decrease of sBA levels upon treatment initiation ([1]; sBA responders): 2-4 Weeks | change from Baseline in mean height z-score ([1]; sBA responders, Week 72, 95% CI 0.369, 0.976, P=0.0016): 0.67 | change from Baseline in mean weight z-score ([1]; sBA responders, Week 72, 95% CI −0.001, 0.603, P=0.051): 0.30 | serum ALT, AST, and bilirubin levels ([1]; sBA responders, if elevated at Baseline, result in words): improvements and/or normalization | change in mean PedsQL score from Baseline to Week 240 ([1]; sBA responders, 95% CI 6.7, 40.6, P=0.014): 24 points | 7α-C4/sBA ratio compared with Baseline ([1]; sBA responders, result in words): generally increased; also recorded: increased rapidly | patients with t-BSEP who met the sBA responder criteria ([1]; six patients with t-BSEP, result in words): No patients and No patient and none | tolerability ([1]; result in words): generally safe and well tolerated | tolerability ([1]; result in words, listed as Maralixibat): generally well-tolerated; also recorded: generally well tolerated | listing for liver transplant ([2]; after >4.5 years of MRX, result in words): No ongoing patients were listed for liver transplant | long-term safety and tolerability ([2]; most frequent TEAEs mild to moderate, result in words): safe and well tolerated | patients who achieved sBA control and remained on-study as of Week 237 ([2]; of n=19 with nontruncated BSEP mutation, sBA threshold ≤100 μmol/L): 7 patients | pruritus ([2]; p<0.001, result in words): improved significantly | Growth (height z-score) ([2]; p<0.01, result in words): improved significantly | native liver survival ([2]; patients who achieved control of sBA during MRX treatment): > 4.5 years | mean sBA value ([2]; patients with sBA control, Week 237, vs. 299.6 μmol/L at baseline): 44.2 (38.8) μmol/L | mean direct bilirubin value ([2]; patients with sBA control, Week 237, vs. 0.6 at BL): 0.1 mg/dL | mean total bilirubin value ([2]; patients with sBA control, Week 237, vs. 0.8 at BL): 0.7 mg/dL | mean ALT value ([2]; patients with sBA control, Week 237, vs. 57.9 at BL): 16.7 U/L | mean AST value ([2]; patients with sBA control, Week 237, vs. 62.1 at BL): 26.7 U/L | Mean (SE) sBA reduction [2, 3]: 234.4 (80.5) μmol/L | Mean reduction in ALT [2, 3]: 41.1 (14.3) U/L | Mean reduction in AST [2, 3]: 35.4 (11.5) U/L | Mean reduction in direct bilirubin ([2]; patients with sBA control, to Week 237, p=0.13): 0.4 (0.2) mg/dL | Mean reduction in total bilirubin ([2]; patients with sBA control, to Week 237, p=0.8): 0.1 (0.3) mg/dL | bilirubin in those with abnormal bilirubin ([2]; result in words): normalized
